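In this assay, cells in 96-well plates receive the compound at five concentrations for 48 hours. Endpoints are linearly interpolated between the surrounding concentrations. GI50 = concentration required for 50% inhibition of growth.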 The source made the active and inactive calls. No stated cut-off is given here; in the data, active = GI50 up to about 1.1 µM and inactive = higher. Starred links: 1 amine or outer side, 2 acyl side, 3 side chain; linkers in the order of their positions; H or OH if unused. Positions of bridges follow the written chain, without caps; N, C: chain ends. Non-standard residues stand in square brackets, D forms with d. Residues, ends and D or L forms follow the SMILES beside them. Chains are numbered I, II in the order given. Actinocin(1to9) = Cc1c2oc3c(C)ccc(C(=O)[*:2])c3nc-2c(C(=O)[*:1])c(N)c1=O; NMeV = CN[CH](C(=O)O)C(C)C; Sar = CNCC(=O)O
Tests used:
Assay in all cases: DTP human tumour cell line panel, 48 h
[1] = tested on: HOP-18
[2] = tested on: DLD-1
[3] = tested on: LXFL 529
[4] = tested on: KM-20L2
[5] = tested on: XF498
[6] = tested on: M19-MEL
[7] = tested on: BT-549
[8] = tested on: MDA-N

Compound	GI50 [1]	GI50 [2]	GI50 [3]	GI50 [4]	GI50 [5]	GI50 [6]	GI50 [7]	GI50 [8]
CN(C)c1ccc(/C=N\N2C(=O)c3ccccc3C2=O)cc1	> 100 µM (inactive)	> 100 µM (inactive)	> 100 µM (inactive)	> 100 µM (inactive)	> 100 µM (inactive)	> 100 µM (inactive)		
N#C/C(=C/c1ccsc1)C(=O)c1ccccc1	> 100 µM (inactive)	> 100 µM (inactive)	> 100 µM (inactive)	> 100 µM (inactive)	> 100 µM (inactive)	> 100 µM (inactive)		
CCOC(=O)/C=C(/C=C\COC1CCCCO1)c1ccccc1 (stereo unspecified)							41.1 µM (inactive)	31.3 µM (inactive)
CNC(=O)N(CCC#N)CCCN(C(=O)NC)c1ccccc1							> 100 µM (inactive)	> 100 µM (inactive)
COC(=O)CCC(=O)CC(=O)C(=O)Nc1ccc(F)cc1	> 100 µM (inactive)	> 100 µM (inactive)	> 100 µM (inactive)	> 100 µM (inactive)		> 100 µM (inactive)		
CC1=C(Cl)C[C@@H](/C(C)=C\Cl)O[C@@]1(O)C(Br)Br							28.4 µM (inactive)	19.2 µM (inactive)
CC1=C(C)CC(C#N)(C#N)C(C#N)(C#N)C1								> 4.78 µM (inactive)
CC(=O)Nc1ccc(C(=O)NN2C(=O)CSC2c2ccccc2)cc1 (stereo unspecified)							34.5 µM (inactive)	> 100 µM (inactive)
COc1ccc(CC2c3cc(OC)c(OC)c(OC)c3CC[N+]2(C)C)cc1Oc1ccc(CC2c3cc4c(c(OC)c3CCN2C)OCO4)cc1 (stereo unspecified)							> 100 µM (inactive)	> 100 µM (inactive)
O=C(NC(=S)Nc1ccc2c(c1)Sc1ccccc1O2)c1ccccc1							29.6 µM (inactive)	3.94 µM (inactive)
CCOC(=O)C1=C(C)N(c2ccc(Cl)cc2)C2(O)C=CC(O)=C3C(=O)c4ccccc4C(=O)C312 (stereo unspecified)							10.6 µM (inactive)	4.7 µM (inactive)
O1C2C1C1OC1C1OC1C1OC21 (stereo unspecified)							> 100 µM (inactive)	> 100 µM (inactive)
CN1CN(c2ccccc2)C2(CCN(C(=O)OC(C)(C)C)CC2)C1=O							> 100 µM (inactive)	> 100 µM (inactive)
COC(=O)c1cc2c(cc1O)[C@@H](NC(C)=O)CCc1cc(OC)c(OC)c(OC)c1-2								0.0277 µM (active)
Fc1ccc(F)c(/C=N/C23CC4CC(CC(C4)C2)C3)c1							> 10 µM (inactive)	> 10 µM (inactive)
Nc1cccc(CCN2CCN(CCCc3ccccc3)CC2)c1							52.5 µM (inactive)	
CCOP(=O)(C[S+](C)[O-])O[C@@H]1C[C@H](C)CC[C@H]1C(C)C (stereo partly specified)							5.25 µM (inactive)	2.86 µM (inactive)
COC(=O)C1=C(C(=O)OC)C2(C(=O)OC)OC1(OC)C(C1(C(=O)OC)C(C(=O)OC)=C1C(=O)OC)=C2C(=O)OC (stereo unspecified)	> 100 µM (inactive)	> 100 µM (inactive)	> 100 µM (inactive)	> 100 µM (inactive)	> 100 µM (inactive)	> 100 µM (inactive)		
C=CC1=CSNN1	> 100 µM (inactive)	> 100 µM (inactive)	> 100 µM (inactive)	> 100 µM (inactive)		> 100 µM (inactive)		
COC(=O)C1=Cc2cn(S(=O)(=O)c3ccc(C)cc3)c3cccc(c23)C(C=C(C)C)N1C(C)=O (stereo unspecified)	38.5 µM (inactive)	14.7 µM (inactive)	32 µM (inactive)	69.3 µM (inactive)	9.55 µM (inactive)	21.4 µM (inactive)		
NC1c2c(Cl)sc(Cl)c2C(=O)C1O (stereo unspecified)							15.6 µM (inactive)	44.4 µM (inactive)
O=C(CCC(NC(=O)OCc1ccccc1)C(=O)OCc1ccccc1)Nc1ccc(OCc2ccccc2)cc1 (stereo unspecified)							> 10 µM (inactive)	
Nc1ccn(CCCC(c2ccccc2)P(=O)(O)O)c(=O)n1 (stereo unspecified)	> 100 µM (inactive)	> 100 µM (inactive)	> 100 µM (inactive)	> 100 µM (inactive)		> 100 µM (inactive)		
CC(C)(C)OC(=O)NCCc1cccc2c1oc1c(CCC(=O)O)cccc12	> 100 µM (inactive)	> 100 µM (inactive)	> 100 µM (inactive)	> 100 µM (inactive)	> 100 µM (inactive)	> 100 µM (inactive)		
O=C(NCCCCNCCCNC(=O)OCc1ccccc1)OCc1ccccc1							55 µM (inactive)	
Cc1[nH]c(O)nc1C(=O)c1ccc(-n2ccnc2)cc1		> 100 µM (inactive)	> 100 µM (inactive)	> 100 µM (inactive)		> 100 µM (inactive)		
CC1OC(=O)C(C(C)C)NC(=O)C(C(C)C)OC(=O)C(C(C)C)NC(=O)C(C)OC(=O)C(C(C)C)NC(=O)C(C(C)C)OC(=O)C(C(C)C)NC(=O)C(C)OC(=O)C(C(C)C)NC(=O)C(C(C)C)OC(=O)C(C(C)C)NC1=O (stereo unspecified)	0.0337 µM (active)	0.00326 µM (active)		0.0034 µM (active)		0.00367 µM (active)	< 0.0001 µM (active)	< 0.0001 µM (active)
CCC(C)C1NC(=O)C(NC(=O)c2c3nc4c(C(=O)NC5C(=O)NC(C(C)CC)C(=O)N6CCCC6C(=O)N(C)CC(=O)N(C)C(C(C)C)C(=O)OC5C)ccc(C)c4oc-3c(C)c(=O)c2N)C(C)OC(=O)C(C(C)C)N(C)C(=O)CN(C)C(=O)C2CCCN2C1=O (stereo unspecified) (I: TIP[Sar][NMeV] / II: TIP[Sar][NMeV]; ester I:1-I:C, II:1-II:C; linker I:N-II:N via Actinocin(1to9); configuration not given here)							0.0105 µM (active)	< 0.01 µM (active)
